Measured values reported in patent US20230003721A1, “MITOTHERAPEUTICS FOR THE TREATMENT OF BRAIN DISORDERS” (The University of Florida Research Foundation, Inc., priority 2019, published 2023).
Structures can show the parent of a compound that is named as a salt. Each block holds one molecule with its values, some of them ahead of it.

Legend:
primary neurons [1] = assay: TMRM fluorescence assay of inner mitochondrial membrane potential (ΔΨm); conditions: for TMRM Primary: primary screen; for TMRM Primary / hit in TMRM primary screen when assayed at 4 h: 12.5 μM; for TMRM Primary / TMRM Rescreen: 24 h; for Emax / EC50: Mus musculus, Primary neuron; for Emax: read-out: TMRM (Effect-size); for EC50: read-out: TMRM-EC50
Procedure: Mitochondrial dyes. To assay the electrochemical potential across the inner mitochondrial membrane of cultured cells, we used the cell-permeant dye tetramethylrhodamine methyl ester (TMRM). For co-localization studies with Mt-GFP, TMRM was used at 20 nM on DIV14 and incubated for 30 min prior to imaging. For the orthogonal screen of compounds, TMRM was added to primary neurons on DIV13 at 10 nM, one hr prior to pintooling selected compounds, and incubated for 24 hr. Cells were washed 2× with pre-warmed fresh feeding media without B27 before measurements with a plate reader.
(§1) A CLARIOstar (BMG LABTECH) microplate reader was used to measure fluorescence of TMRM and luminescence produced from the ATP.
(§2) Mitochondrial membrane potential (Δψm) and luminescence-based ATP assays. […] Changes of ΔΨm in each well were monitored using the mitochondrial-specific, fluorescent dye TMRM (tetramethyl rhodamine, methyl ester; Molecular Probes) and measured using a CLARIOstar plate reader. […] This concentration was used throughout our experiments. […] Wells in columns 1 and 24 were not loaded with TMRM; these served to measure background signal which was subtracted from the wells to which TMRM was added. To measure the total ATP levels in neurons we utilized the CellTiter-Glo® luminescence-based ATP assay (Promega). DIV13 primary neurons were cultured for 24 h with either DMSO carrier or compound treatment, followed by removing 55 μl culture medium from each well. Plates were maintained at room temperature for 25 m, and 25 μl of CellTiter-Glo® Reagent with the substrate luciferin was then added to each well (Promega). Plates were covered with aluminum foil and shaken vigorously on an orbital shaker for 10 m at 200 rpm and maintained at room temperature for an additional 2 m in dark before being read with the plate reader set to the luminescence mode.
Compound library and hit picking rules. We screened 2400 compounds from the MicroSource Spectrum library. […] FIGS. 13A-13E provide details of the assays used from which hit picking rules were made. In essence, the average fluorescence for each compound in the TMRM assay was determined and compared to the average fluorescence for compounds in the population on each assay plate to produce a Z-score. The Z-scores for each individual compound assayed across the four replicate plates was then averaged.

primary neurons [2] = assay: CellTiter-Glo luminescence-based ATP assay; type: cell-based, mouse; conditions: for ATP: ATP orthogonal screen, 24 h; for EC50 / Emax: Mus musculus, Primary neuron, dose response; for EC50: 15 concentrations from 6 nM to 100 uM; for Emax: maximal percent increase relative to in-plate DMSO controls, read-out: ATP (Effect-size)
Procedure: Measurement of ATP production. The total amount of ATP produced by cultured primary neurons was measured by CellTiter-Glo Luminescent Cell Viability Assay (Promega). A recombinant luciferase enzyme catalyzed the mono-oxygenation of luciferin while hydrolyzing ATP produced by the cells and emitting light. We followed the manufacturer's protocol with primary neurons on DIV14.
as §1, §2
Compound library and hit picking rules. We screened 2400 compounds from the MicroSource Spectrum library. […] FIGS. 13A-13E provide details of the assays used from which hit picking rules were made. In essence, the average fluorescence for each compound in the TMRM assay was determined and compared to the average fluorescence for compounds in the population on each assay plate to produce a Z-score. The Z-scores for each individual compound assayed across the four replicate plates was then averaged. Because of significant well location effects (outer rows) on each assay plate (FIG. 13G), we selected primary hits as enhancing well fluorescence above the μplate by 3σplate for inner row wells (rows C-N, columns 3-22), and by 2.5σplate for outer row wells (rows A, B, O, P; columns 3-22) (FIG. 14C-D). […] All orthogonal assays employed inner wells of the 384-well plates.

Molecule: Fc1ccc([C@@H]2CCNC[C@H]2COc2ccc3c(c2)OCO3)cc1 [paroxetine hydrochloride]
TMRM Primary (primary neurons [1]): 3.53 Z-scores
TMRM Rescreen (primary neurons [1]): 3.26 Z-scores
ATP (primary neurons [2]): 4.41 Z-scores

Molecule: CC(=O)O[C@]1(C(C)=O)CC[C@H]2[C@@H]3C[C@H](C)C4=CC(=O)CC[C@]4(C)[C@H]3CC[C@@]21C [medroxyprogesterone acetate]
hit in TMRM primary screen when assayed at 4 h (primary neurons [1]): medroxyprogesterone acetate*
TMRM Primary (primary neurons [1]): 3.66 Z-scores
TMRM Rescreen (primary neurons [1]): 3.67 Z-scores
ATP (primary neurons [2]): 2.64 Z-scores

Molecule: Nc1c(Br)cc(Br)cc1CN[C@H]1CC[C@H](O)CC1 [ambroxol hydrochloride]
TMRM Primary (primary neurons [1]): 4.00 Z-scores
TMRM Rescreen (primary neurons [1]): 5.14 Z-scores
ATP (primary neurons [2]): 5.04 Z-scores

Molecule: CCN(CC)C(=O)[C@@]1(c2ccccc2)C[C@H]1CN [levomilnacipran hydrochloride]
TMRM Primary (primary neurons [1]): 3.26 Z-scores
TMRM Rescreen (primary neurons [1]): 3.53 Z-scores
ATP (primary neurons [2]): 3.87 Z-scores

Molecule: CN(C)CCC=C1c2ccccc2CCc2ccccc21 [amitriptyline hydrochloride]
TMRM Primary (primary neurons [1]): 4.78 Z-scores
TMRM Rescreen (primary neurons [1]): 1.81 Z-scores
ATP (primary neurons [2]): 4.82 Z-scores

Molecule: trimeprazine tartrate
TMRM Primary (primary neurons [1]): 3.13 Z-scores
TMRM Rescreen (primary neurons [1]): 3.94 Z-scores
ATP (primary neurons [2]): 5.75 Z-scores

Molecule: COc1ccc(-n2nc(CCC(=O)N(C)O)cc2-c2ccc(Cl)cc2)cc1 [tepoxalin]
TMRM Primary (primary neurons [1]): 4.36 Z-scores
TMRM Rescreen (primary neurons [1]): 3.75 Z-scores
ATP (primary neurons [2]): 6.89 Z-scores

Molecule: CCc1nc(N)nc(N)c1-c1ccc(Cl)cc1 [pyrimethamine]
hit in TMRM primary screen when assayed at 4 h (primary neurons [1]): pyrimethamine*
TMRM Primary (primary neurons [1]): 3.43 Z-scores
TMRM Rescreen (primary neurons [1]): 4.00 Z-scores
ATP (primary neurons [2]): 6.54 Z-scores

Molecule: CC[C@H]1[C@@H]2C[C@H]3[C@@H]4N(C)c5ccccc5[C@]45C[C@@H]([C@H]2[C@H]5O)N3[C@@H]1O [ajmaline]
TMRM Primary (primary neurons [1]): 3.76 Z-scores
TMRM Rescreen (primary neurons [1]): 6.40 Z-scores
ATP (primary neurons [2]): 4.76 Z-scores

Molecule: CCOC(=O)C1=C(C)NC(C)=C(C(=O)OC)C1c1cccc(Cl)c1Cl (stereo not drawn) [felodipine]
TMRM Primary (primary neurons [1]): 3.80 Z-scores
TMRM Rescreen (primary neurons [1]): 2.41 Z-scores
ATP (primary neurons [2]): 5.08 Z-scores

EC50 (primary neurons [1]): 4580 nM
Molecule: COC(=O)[C@H]1[C@H]2C[C@H]3c4[nH]c5ccccc5c4CCN3C[C@H]2CC[C@@H]1O [rauwolscine hydrochloride]
Emax (primary neurons [1]): 29.4%
TMRM Primary (primary neurons [1]): 4.30 Z-scores
TMRM Rescreen (primary neurons [1]): 8.77 Z-scores
ATP (primary neurons [2]): 8.40 Z-scores
EC50 (primary neurons [2]): 1000 nM
Emax (primary neurons [2]): 20.9%

EC50 (primary neurons [1]): 640 nM
Molecule: COC(=O)[C@H]1[C@H]2C[C@@H]3c4[nH]c5cc(OC)ccc5c4CCN3C[C@H]2C[C@@H](OC(=O)c2cc(OC)c(OC)c(OC)c2)[C@@H]1OC [reserpine]
Emax (primary neurons [1]): 22.5%
TMRM Primary (primary neurons [1]): 7.44 Z-scores
TMRM Rescreen (primary neurons [1]): 7.89 Z-scores
ATP (primary neurons [2]): 5.29 Z-scores
EC50 (primary neurons [2]): 120 nM
Emax (primary neurons [2]): 20.5%

Molecule: CCN(CC)CCOC(=O)C(Cc1cccc2ccccc12)CC1CCCO1 (stereo not drawn) [nafronyl oxalate]
hit in TMRM primary screen when assayed at 4 h (primary neurons [1]): nafronyl oxalate*
TMRM Primary (primary neurons [1]): 4.08 Z-scores
TMRM Rescreen (primary neurons [1]): 5.89 Z-scores
ATP (primary neurons [2]): 5.17 Z-scores

Molecule: OCCOCCN1CCN(C(c2ccccc2)c2ccc(Cl)cc2)CC1 (stereo not drawn) [hydroxyzine pamoate]
TMRM Primary (primary neurons [1]): 3.15 Z-scores
TMRM Rescreen (primary neurons [1]): 6.04 Z-scores
ATP (primary neurons [2]): 5.22 Z-scores

Molecule: trimebutine maleate
hit in TMRM primary screen when assayed at 4 h (primary neurons [1]): trimebutine maleate*
TMRM Primary (primary neurons [1]): 3.79 Z-scores
TMRM Rescreen (primary neurons [1]): 5.82 Z-scores
ATP (primary neurons [2]): 6.14 Z-scores

Molecule: carvedilol phosphate
TMRM Primary (primary neurons [1]): 5.81 Z-scores
TMRM Rescreen (primary neurons [1]): 5.43 Z-scores
ATP (primary neurons [2]): 6.87 Z-scores
